In series [1] the test system is CYP3A. The series can be described thus: CYP inhibition in human liver microsomes. It counts as in vitro ADME. As for the experimental part: (§1) ADMET assays were performed through NIAID Preclinical Services and Eurofins. Potential for cytotoxicity was monitored in HepG2 cells after 72 h growth in the presence of test compounds, either prepared as 10-point 3-fold serial dilutions or at a fixed 10 μM concentration. Cell viability was measured using the CellTiter-Glo® Luminescent Cell Viability Assay (Promega) or via fluorescent image analysis. Cytotoxicity was expressed as IC50 or as percent reduction of viable cells relative to a reference compound. Metabolic stability of compounds was evaluated via incubation with human liver microsomes at 37°C and quantitative analysis of parent compound by LC-MS/MS in samples removed at 0, 5, 15, 30, and 45 min (Obach, [1999]). For cytochrome P450 (CYP) inhibition assays, compounds were prepared as a 7-point dilution series and incubated with human liver microsomes in buffer containing 2 mM NADPH and probe substrate. […] Thermodynamic solubility of compounds in aqueous media was determined by incubation in 50 mM potassium phosphate buffer (pH 7.4) for 24 h, followed by HPLC-UV detection of compound in the filtrate (Analiza, Cleveland, OH, United States).
On the technique in general: Microsomes from liver hold many membrane-bound enzymes, among them those of drug oxidation.

The target in series [2] is T1, CYP2B6 (Homo sapiens, UniProt P20813).
T1 construct: incubated with human liver microsomes in buffer containing 2 mM NADPH and probe substrate; from tissue; host or cells: human liver microsomes
T1 sequence (P20813 1-491): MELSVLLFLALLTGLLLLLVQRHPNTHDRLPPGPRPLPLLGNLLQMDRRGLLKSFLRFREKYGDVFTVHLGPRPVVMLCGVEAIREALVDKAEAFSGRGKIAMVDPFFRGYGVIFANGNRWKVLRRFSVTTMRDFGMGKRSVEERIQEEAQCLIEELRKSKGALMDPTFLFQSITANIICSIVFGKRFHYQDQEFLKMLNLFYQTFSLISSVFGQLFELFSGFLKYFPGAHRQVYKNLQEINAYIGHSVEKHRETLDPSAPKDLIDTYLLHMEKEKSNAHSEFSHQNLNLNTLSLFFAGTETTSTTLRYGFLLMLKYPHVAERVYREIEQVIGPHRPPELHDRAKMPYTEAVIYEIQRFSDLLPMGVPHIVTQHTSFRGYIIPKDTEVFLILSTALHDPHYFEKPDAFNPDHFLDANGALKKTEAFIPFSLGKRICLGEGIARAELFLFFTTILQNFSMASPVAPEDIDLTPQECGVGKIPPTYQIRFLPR
The series can be described thus: CYP inhibition in human liver microsomes. In kind it is in vitro ADME. As for the experimental part:
as §1

The nature of series [3]: Mouse oral PK and tolerability. It counts as in vivo, female CD-1 mice. As to conditions: oral 100 mg/kg.
The subject of series [4] is Mtb H37Rv. It counts as cell-based, M. tuberculosis.
Series [5] has as its system S. pyogenes ATCC 19615. The series can be described thus: MIC, spectrum of activity. It counts as cell-based. As to conditions: Streptococcus pyogenes, ATCC19615; S. pyogenes ATCC 19615; read-out: MIC.
The subject of series [6] is S. aureus ATCC 29213. The series can be described thus: MIC, spectrum of activity. In kind it is cell-based. The note with it: Staphylococcus aureus, ATCC29213; S. aureus ATCC 29213; read-out: MIC.

A word on the inhibition: it is the drop in the measured response relative to a control, in per cent. The MIC is the least concentration at which growth counts as inhibited.

As for `CC12CC3CC(C)(C1)CC(C(=O)Nc1nc4ccc(OC(F)(F)F)cc4s1)(C3)C2` [CRS400226], the inhibition at 10 µM in series [1] and in series [2] was below 50% throughout. The concentration at 1 h in series [3] (mouse, plasma, female CD-1 mice, 1 h, read-out: plasma level) turned out to be 2300 ng/mL. Also, the concentration at 8 h in series [3] (mouse, plasma, female CD-1 mice, 8 h, read-out: plasma level) came to 2000 ng/mL. Besides, in series [3] (mice), the “tolerability of oral dosing” value is on record as “highly tolerated”. Also, in series [4], the “reduction in Mtb in time-kill assay” value worked out at 3 Log10 CFU. Moreover, the “time-kill kinetics, result in words” value in series [4] is “bactericidal activity”. The MIC in series [5] and in series [6] was above 64 µg/mL each time.

Values taken from article PMC6158578, “Optimization and Lead Selection of Benzothiazole Amide Analogs Toward a Novel Antimycobacterial Agent” (Frontiers in Microbiology, 2018).
